Test results: patent publication US12421211B2, “Heterocyclic compounds” (Hoffmann-La Roche Inc., priority 2021, dated 2025)
Structures can show the parent of a compound that is named as a salt. Where two headings read alike, the source gives them in different places.

System: Acinetobacter baumannii ATCC17961
Test: Antimicrobial susceptibility testing: 90% growth inhibitory concentration (IC90) determination
Assay type: cell-based
Conditions: Acinetobacter baumannii, ATCC17961, 16 h, read-out: ATCC 17961 IC90
How it was run: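 Growth inhibition derived in log phase from OD600 kinetics (every 20 minutes, 16h, 35±2° C) of ATCC17961 in Iso-Sensitest medium, inoculum ~5×10^5 CFU/ml. Compounds tested as twofold series, 10 points (e.g. 50 to 0.097 μM final); IC90 and IC50 reported.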

[1] = 90% growth inhibitory concentration, Acinetobacter baumannii ATCC17961, Iso-Sensitest broth, OD 600 nm over 16 h

| IC90 [1] [nM] | Compound | IC90 [nM] |
| --- | --- | --- |
| 210 | COCCn1ncc(-c2ccc(-c3cnc(C(=O)Nc4ccc(C(=O)NCC5CCN(C(=O)CN(C)C)CC5)c(Cl)c4)n3C)c(F)c2F)c1C [Example D33, N-[3-chloro-4-[[1-[2-(dimethylamino)acetyl]-4-piperidyl]methylcarbamoyl]phenyl]-5-[2,3-difluoro-4-[1-(2-methoxyethyl)-5-methyl-pyrazol-4-yl]phenyl]-1-methyl-imidazole-2-carboxamide; 2,2,2-trifluoroacetic acid] |  |
| 88 | Cc1n[nH]cc1-c1ccc(-c2cnc(C(=O)Nc3ccc(C(=O)N4CCN(C(=O)[C@@H]5C[C@@H](O)CN5)CC4)c(Cl)c3)n2C)c(F)c1F [Example D36, N-[3-chloro-4-[4-[(2S,4R)-4-hydroxypyrrolidine-2-carbonyl]piperazine-1-carbonyl]phenyl]-5-[2,3-difluoro-4-(3-methyl-1H-pyrazol-4-yl)phenyl]-1-methyl-imidazole-2-carboxamide] |  |
| 150 | COCCn1ncc(-c2ccc(-c3cnc(C(=O)Nc4ccc(C(=O)N5CCC(NS(=O)(=O)C6CC[N+](C)(C)CC6)CC5)c(Cl)c4)n3C)c(F)c2F)c1C [Example D37, N-[3-chloro-4-[4-[(1,1-dimethylpiperidin-1-ium-4-yl)sulfonylamino]piperidine-1-carbonyl]phenyl]-5-[2,3-difluoro-4-[1-(2-methoxyethyl)-5-methyl-pyrazol-4-yl]phenyl]-1-methyl-imidazole-2-carboxamide; formate] |  |
| 61 | Cc1n[nH]cc1-c1ccc(-c2cnc(C(=O)Nc3ccc(C(=O)N4CCN(C(=O)CCC[N+](CCCN)(CCCN)CC(=O)O)CC4)c(Cl)c3)n2C)c(F)c1F [Example D41, bis(3-aminopropyl)-(carboxymethyl)-[4-[4-[2-chloro-4-[[5-[2,3-difluoro-4-(3-methyl-1H-pyrazol-4-yl)phenyl]-1-methyl-imidazole-2-carbonyl]amino]benzoyl]piperazin-1-yl]-4-oxo-butyl]ammonium; formic acid; formate] |  |
| 60 | Cc1n[nH]cc1-c1ccc(-c2cnc(C(=O)Nc3ccc(C(=O)N4CCN(C(=O)CCC[N+](CC(=O)O)(CC5CNC5)CC5CNC5)CC4)c(Cl)c3)n2C)c(F)c1F [Example D42, bis(azetidin-3-ylmethyl)-(carboxymethyl)-[4-[4-[2-chloro-4-[[5-[2,3-difluoro-4-(3-methyl-1H-pyrazol-4-yl)phenyl]-1-methyl-imidazole-2-carbonyl]amino]benzoyl]piperazin-1-yl]-4-oxo-butyl]ammonium; formic acid; formate] |  |
| 48 | COCCn1ncc(-c2ccc(-c3cnc(C(=O)Nc4ccc(C(=O)N5CCN(C(=O)C[C@@H]6CCNC6)CC5)c(Cl)c4)n3C)c(F)c2F)c1C [Example E2, N-[3-chloro-4-[4-[2-[(3S)-pyrrolidin-3-yl]acetyl]piperazine-1-carbonyl]phenyl]-5-[2,3-difluoro-4-[1-(2-methoxyethyl)-5-methyl-pyrazol-4-yl]phenyl]-1-methyl-imidazole-2-carboxamide; formic acid] |  |
| 210 | COCCn1ncc(-c2ccc(-c3cnc(C(=O)Nc4ccc(C(=O)N5CCNCC5)c(Cl)c4)n3C)c(F)c2F)c1C [Example E7, N-[3-chloro-4-(piperazine-1-carbonyl)phenyl]-5-[2,3-difluoro-4-[1-(2-methoxyethyl)-5-methyl-pyrazol-4-yl]phenyl]-1-methyl-imidazole-2-carboxamide; 2,2,2-trifluoroacetic acid] |  |
| 200 | COCCn1ncc(-c2ccc(-c3cnc(C(=O)Nc4ccc(C(=O)N5CCN(C(=O)[C@@H]6C[C@@H](O)CN6)CC5)c(C)c4)n3C)c(F)c2F)c1C [Example E8, 5-[2,3-difluoro-4-[1-(2-methoxyethyl)-5-methyl-pyrazol-4-yl]phenyl]-N-[4-[4-[(2S,4R)-4-hydroxypyrrolidine-2-carbonyl]piperazine-1-carbonyl]-3-methyl-phenyl]-1-methyl-imidazole-2-carboxamide] |  |
| 65 | COCCn1ncc(-c2ccc(-c3cnc(C(=O)Nc4ccc(C(=O)N5CCN(C(=O)[C@@H]6C[C@@H](O)CN6)CC5)c(Cl)c4)n3C)c(F)c2F)c1C [Example E9, N-[3-chloro-4-[4-[(2S,4R)-4-hydroxypyrrolidine-2-carbonyl]piperazine-1-carbonyl]phenyl]-5-[2,3-difluoro-4-[1-(2-methoxyethyl)-5-methyl-pyrazol-4-yl]phenyl]-1-methyl-imidazole-2-carboxamide; 2,2,2-trifluoroacetic acid] |  |

Continued, compound first:

| Compound | IC90 [1] [nM] | IC90 [nM] |
| --- | --- | --- |
| COCCn1ncc(-c2ccc(-c3cnc(C(=O)Nc4ccc(C(=O)N5CCN(C(=O)CN(C)C)CC5)c(Cl)c4)n3C)c(F)c2F)c1C [Example D32, N-[3-chloro-4-[4-[2-(dimethylamino)acetyl]piperazine-1-carbonyl]phenyl]-5-[2,3-difluoro-4-[1-(2-methoxyethyl)-5-methyl-pyrazol-4-yl]phenyl]-1-methyl-imidazole-2-carboxamide; 2,2,2-trifluoroacetic acid] | 52 |  |
| Cc1n[nH]cc1-c1ccc(-c2cnc(C(=O)Nc3ccc(C(=O)N4CCN(C(=O)CN(C)C)CC4)c(Cl)c3)n2C)c(F)c1F [Example D34, N-[3-chloro-4-[4-[2-(dimethylamino)acetyl]piperazine-1-carbonyl]phenyl]-5-[2,3-difluoro-4-(3-methyl-1H-pyrazol-4-yl)phenyl]-1-methyl-imidazole-2-carboxamide; formic acid] | 110 |  |
| Cc1n[nH]cc1-c1ccc(-c2cnc(C(=O)Nc3ccc(C(=O)N4CCN(C(=O)C[N+](C)(C)C)CC4)c(Cl)c3)n2C)c(F)c1F [Example D35, [2-[4-[2-chloro-4-[[5-[2,3-difluoro-4-(3-methyl-1H-pyrazol-4-yl)phenyl]-1-methyl-imidazole-2-carbonyl]amino]benzoyl]piperazin-1-yl]-2-oxo-ethyl]-trimethyl-ammonium; formate] | 170 |  |
| COCCn1nc(C)c(-c2ccc(-c3cnc(C(=O)Nc4ccc(C(=O)N[C@H]5[C@@H]6CN(C(=O)[C@@H]7C[C@@H](O)C[N+]7(C)C)C[C@@H]65)c(Cl)c4)n3C)c(F)c2F)c1C [Example D38, N-[3-chloro-4-[[(1R,5S)-3-[(2S,4R)-4-hydroxy-1,1-dimethyl-pyrrolidin-1-ium-2-carbonyl]-3-azabicyclo[3.10]hexan-6-yl]carbamoyl]phenyl]-5-[2,3-difluoro-4-[1-(2-methoxyethyl)-3,5-dimethyl-pyrazol-4-yl]phenyl]-1-methyl-imidazole-2-carboxamide; formate] | 150 |  |
| COCCn1ncc(-c2ccc(-c3cnc(C(=O)Nc4ccc(C(=O)N[C@H]5[C@@H]6CN(C(=O)[C@@H]7C[C@@H](O)C[N+]7(C)C)C[C@@H]65)c(Cl)c4)n3C)c(F)c2F)c1C [Example D40, N-[3-chloro-4-[[(1S,5R)-3-[(2S,4R)-4-hydroxy-1,1-dimethyl-pyrrolidin-1-ium-2-carbonyl]-3-azabicyclo[3.10]hexan-6-yl]carbamoyl]phenyl]-5-[2,3-difluoro-4-[1-(2-methoxyethyl)-3,5-dimethyl-pyrazol-4-yl]phenyl]-1-methyl-imidazole-2-carboxamide; formate] | 77 |  |
| Cc1n[nH]c(C)c1-c1ccc(-c2cnc(C(=O)Nc3ccc(C(=O)N4CCN(C(=O)[C@@H]5C[C@@H](O)C[N+]5(C)C)CC4)c(Cl)c3)n2C)c(F)c1F [Example D43, N-[3-chloro-4-[4-[(2S,4R)-4-hydroxy-1,1-dimethyl-pyrrolidin-1-ium-2-carbonyl]piperazine-1-carbonyl]phenyl]-5-[4-(3,5-dimethyl-1H-pyrazol-4-yl)-2,3-difluoro-phenyl]-1-methyl-imidazole-2-carboxamide; formate] |  | 810 |
| COCCn1ncc(-c2ccc(-c3cnc(C(=O)Nc4ccc(C(=O)N5CCN(C(=O)C6(OC)CCNCC6)CC5)c(Cl)c4)n3C)c(F)c2F)c1C [Example D44, N-[3-chloro-4-[4-(4-methoxypiperidine-4-carbonyl)piperazine-1-carbonyl]phenyl]-5-[2,3-difluoro-4-[1-(2-methoxyethyl)-5-methyl-pyrazol-4-yl]phenyl]-1-methyl-imidazole-2-carboxamide] | 160 |  |
| COCCn1ncc(-c2ccc(-c3cnc(C(=O)Nc4ccc(C(=O)N5CCN(C(=O)C6CCNCC6)CC5)c(Cl)c4)n3C)c(F)c2C)c1C [Example E3, N-[3-chloro-4-[4-(piperidine-4-carbonyl)piperazine-1-carbonyl]phenyl]-5-[2-fluoro-4-[1-(2-methoxyethyl)-5-methyl-pyrazol-4-yl]-3-methyl-phenyl]-1-methyl-imidazole-2-carboxamide; formic acid] | 490 |  |
| COCCn1ncc(-c2ccc(-c3cnc(C(=O)Nc4ccc(C(=O)N5CCN(C(=O)C6CCNCC6)CC5)c(Cl)c4)n3C)c(C)c2F)c1C [Example E5, N-[3-chloro-4-[4-(piperidine-4-carbonyl)piperazine-1-carbonyl]phenyl]-5-[3-fluoro-4-[1-(2-methoxyethyl)-5-methyl-pyrazol-4-yl]-2-methyl-phenyl]-1-methyl-imidazole-2-carboxamide; formic acid] | 180 |  |
| Cn1c(-c2ccc(-c3cn(CCOC(F)F)nc3C(F)(F)F)c(F)c2F)cnc1C(=O)Nc1ccc(C(=O)N2CCN(C(=O)C3CCNCC3)CC2)c(Cl)c1 [Example E6, N-[3-chloro-4-[4-(piperidine-4-carbonyl)piperazine-1-carbonyl]phenyl]-5-[4-[1-[2-(difluoromethoxy)ethyl]-3-(trifluoromethyl)pyrazol-4-yl]-2,3-difluoro-phenyl]-1-methyl-imidazole-2-carboxamide; formic acid] | 950 |  |
| COCCn1ncc(-c2ccc(-c3cnc(C(=O)Nc4ccc(C(=O)NCC5CCNCC5)c(Cl)c4)n3C)c(F)c2F)c1C [Example E10, N-[3-chloro-4-(4-piperidylmethyl-carbamoyl)phenyl]-5-[2,3-difluoro-4-[1-(2-methoxyethyl)-5-methyl-pyrazol-4-yl]phenyl]-1-methyl-imidazole-2-carboxamide; 2,2,2-trifluoroacetic acid] | 170 |  |
